What was measured:
[1] = design: species or system human; details: in vivo
[2] = Solubility of deutetrabenazine versus pH; type: physicochemical
Description: (§1) Deutetrabenazine is permeable through the small intestinal (SI) segments in a rat perfusion model.
The dosage forms disclosed herein were developed to achieve similar pharmacokinetics (PK) of 2 doses of AUSTEDO® 12 mg tablets with a single daily dose (QD).

[3] = in vivo; cited from earlier work
[4] = test system: small intestinal (SI) segments; type: in vivo; details: rat
From the text: as §1

[5] = Particle size distribution by laser diffractometry (Mastersizer 3000); type: physicochemical; details: drug substance, Table 1
Description: Particle size distribution is determined by means of laser diffractometry. More specifically, the particle size distribution was determined using a Mastersizer 3000 from Malvern Instruments. The particle size determination may be carried out as a wet or dry measurement depending on the sample.
The deutetrabenazine particle size distributions following manufacture (untreated), micronization (air jet mill) and nano-milling (Dyno bead mill) are shown in Table 1.
Using a Mastersizer 3000 (Malvern Instruments), the following settings were used for dry measurement of the micro-milled and unmilled deutetrabenazine:
Using a Mastersizer 3000 (Malvern Instruments), the following settings were used for wet measurement of the nano-milled deutetrabenazine:
Deutetrabenazine particle size was reduced to a nanometer size (<1.0 micron) using a wet Dyno milling process in several passes. The milled deutetrabenazine was dispersed in excipient as above. The dispersion was passed through a 0.3 liter agitator bead mill containing 950 g of very high density zirconium oxide beads. The dispersion was passed through the agitator mill for up to 2 hrs to obtain particle size below 1.0 micron.

radioactive dose recovered in urine [1] | solubility ([2]; acidic environment (pH<4)) | solubility ([2]; pH ≥4) | permeability through small intestinal (SI) segments [4] | ileum absorption ([4]; in vivo) | levels of absorption in the lower GI, order of segments ([4]; in vivo) | D10 [5] | D50 [5] | D90 [5] | Structure (SMILES) | half-life of active metabolites relative to tetrabenazine [3]
approximately 80% | relatively good solubility | < 2300 µg/mL | permeable | about 0.0006 cm/sec | Jejunum<Mid-small intestine<Colon<Ileum | – | – | – | [2H]C([2H])([2H])Oc1cc2c(cc1OC([2H])([2H])[2H])[C@H]1CC(=O)[C@H](CC(C)C)CN1CC2 [Deutetrabenazine, (RR,SS)-1,3,4,6,7,11b-hexahydro-9,10-di(methoxy-D3)-3-(2-methylpropyl)-2H-benzo[a]quinolizin-2-one] | increased half-life
– | – | – | – | – | – | 1.08 μm | 3.31 μm | 7.05 μm | [2H]C([2H])([2H])Oc1cc2c(cc1OC([2H])([2H])[2H])C1CC(=O)C(CC(C)C)CN1CC2 (stereo not shown) [micro-milled] | –
– | – | – | – | – | – | 0.07 μm | 0.14 μm | 0.34 μm | [2H]C([2H])([2H])Oc1cc2c(cc1OC([2H])([2H])[2H])C1CC(=O)C(CC(C)C)CN1CC2 (stereo not shown) [nano-milled] | –
